What was measured:
[1] = system: Mycobacterium smegmatis ATCC 607; assay: Antimicrobial assay, liquid growth inhibition in 96-well microplates; type: cell-based; settings: Mycolicibacterium smegmatis; Mycobacterium smegmatis ATCC607; OD 600 nm after 12 h at 37 °C; read-out: Antibacterial activity IC50, MS
Description: (§1) The antimicrobial activity was assayed against the Gram-positive bacterial strains Mycobacterium smegmatis ATCC 607 and Staphylococcus aureus ATCC 25923, Gram-negative Escherichia coli ATCC 8739 and Pseudomonas aeruginosa ATCC 9027 and yeast Candida albicans ATCC10231 by liquid growth inhibition in 96-well microplates. Briefly, precultures of the tested microorganisms were made by inoculating 10 mL of medium (LB medium for bacteria and YM medium for fungus) and incubated for 24 h at 37 °C for bacteria or 48 h at 28 °C for fungus. Then, the cell density was adjusted to 10^4−10^5 cfu mL^−1 by the corresponding broth. An aliquot of 200 μL of the microbial suspension was distributed in each well containing 2-fold serial dilution of the tested compounds. The plate was incubated at 37 °C for 12 h for the bacteria or at 28 °C for 48 h for the fungus, and the optical density of each well was measured at 600 nm spectrophotometrically. IC50 values were defined as the concentration of a compound resulting in a 50% decrease in the number of microbial cultures compared to the blank control. The experiment was run in three replicates.

[2] = system: Staphylococcus aureus ATCC 25923; assay: as above; type: cell-based; settings: Staphylococcus aureus ATCC25923; OD 600 nm after 12 h at 37 °C; read-out: Antibacterial activity IC50, SA
Description: as §1

Compound | IC50 [1] | IC50 [2]
CO/N=C(\C(=O)N[C@@H]1C(=O)N2C(C(=O)O)=C(CSc3nc(=O)c(=O)[nH]n3C)CS[C@H]12)c1csc(N)n1 [Ceftriaxone sodium, reference compound] | < 1 µM | < 1 µM
C[C@@H]1CC[C@H]2[C@H](C(=O)c3c(=O)[nH]cc4c5c(oc34)[C@H](O)[C@H](O)CC5)[C@H](C)C=C[C@@H]2C1 [Compound 4, Arthpyrone G] | > 50 µM | 42.8 µM
CC1CCC2C(C=CC(C)C2C(=O)c2c3c(c[nH]c2=O)C2(O)CCC(O)C(O)C2O3)C1 (stereo not drawn) [Compound 3, Arthpyrone F] | 11.4 µM | 8.97 µM

Further lines, results first:

IC50 [1] | IC50 [2] | Compound
35.3 µM | 14.1 µM | CO[C@]1(c2c[nH]c(=O)c(C(=O)[C@H]3[C@@H]4CC[C@@H](C)C[C@H]4C=C[C@H]3C)c2O)CC[C@@H](O)[C@H](O)[C@H]1O [Compound 6, Arthpyrone I]
19.4 µM | 8.37 µM | CO[C@H]1[C@H](O)CC[C@](O)(c2c[nH]c(=O)c(C(=O)[C@H]3[C@@H]4CC[C@@H](C)C[C@H]4C=C[C@H]3C)c2O)[C@@H]1O [Compound 5, Arthpyrone H]
2.2 µM | 1.66 µM | CC1CCC2C(C=CC(C)C2C(=O)c2c(O)c(C3(O)CCC(O)C4OC43)c[nH]c2=O)C1 (stereo not drawn) [Compound 9, apiosporamide]

— publication PMC5983305, “Bioactive Pyridone Alkaloids from a Deep-Sea-Derived Fungus Arthrinium sp. UJNMF0008” (Marine Drugs, 2018)
